Measured values published in patent EP2945947B1, “INHIBITING THE TRANSIENT RECEPTOR POTENTIAL A1 ION CHANNEL” (Merck Sharp & Dohme Corp., priority 2013, dated 2014).
Converted amounts (≈) assume the structure as drawn. Like-named read-outs stand apart in the source and are kept apart here. Marks after values point to notes of the source that are not given here.

Columns and labels:
[1] = target: human TRPA1 (Homo sapiens, UniProt O75762); test: Inhibition of the TRPA1 ion channel, whole cell patch configuration (Example 1); format: cell-based; details: current activation 10 µM AITC, read-out: Human TRPA1 IC50 Inward Current
Method: Compounds of Formula (Ia) inhibit the TRPA1 channel, as measured using the method of Example 1. […] Data for TRPA1 inhibition and for TRPA1 selectivity was obtained by this method for the indicated compounds of Formula (Ia), with the relevant data included in Tables 1a - f below. All currents were recorded in whole-cell configuration using EPC-9 and EPC-10 amplifiers and Patchmaster software (HEKA). […] The standard pipette solution consisted of 140mM CsAsp, 10 mM EGTA, 10 mM HEPES, 2.27 mM MgCl2, 1.91 mM CaCl2, 4 mM MgATP, and 0.1-0.3 mM Na2GTP, with pH adjusted to 7.2 with CsOH. In addition, a solution containing 145 mM CsCl, 10 mM HEPES, 10 mM EGTA and 1 mM MgCl2 (pH 7.2 adjusted with CsOH) can be used. The standard bath solution contained 150 mM NaCl, 10 mM HEPES, 10 mM glucose, 4.5 mM KCl, 1 mM EGTA, 3 mM MgCl2, with pH adjusted to 7.4 with NaOH. In some instances, 2 mM CaCl2 was added in place of EGTA and the concentration of MgCl2 was reduced to 1 mM.
Data were collected either by continuous recordings at -60 mV or by applying voltage ramps from a holding potential of 0 mV every 4 s. Continuous recordings were collected at 400 Hz and digitally filtered off-line at 10 Hz for presentation. Voltage ramps were applied from - 100 mV to 100 mV over the course of 400 ms, and data were collected at 10 kHz and filtered at 2.9 kHz. Inward and outward currents were analyzed from the ramps at -80 and 80 mV, respectively. Liquid junction potential correction was not used.
Solutions were switched using a gravity-fed continuous focal perfusion system. To achieve rapid temperature changes, two temperature control, and perfusion systems were employed simultaneously. For temperatures ≥ 22°C, a Warner Instruments bipolar temperature controller (TC-344B) and inline heater (SHM-8) were used. […] Temperatures were confirmed using a thermistor (Warner Instruments, TA-29), with temperatures at the recorded cell estimated to be within +/- 2°C of those reported.
The antagonist effects of compounds of Formula (Ia) against human TRPA1 ("hTRPA1") and for some compounds rat TRPA1 ("rTRPA1") in a whole cell patch configuration were evaluated using the in vitro assay described above. The current activation tested was 10 µM AITC, and the tested concentrations ranged from 5 µM and 500 nM. Table 1a (Comparative Compounds)

[2] = test system: Female Sprague Dawley rats; test: Rodent acute tolerability test with liver function tests (Example 5); format: in vivo, rat; parameters: key to Alterations in LFT: (↔) indicates blood levels of markers for potential liver damage within normal range; (↑) indicates blood levels of markers for potential liver damage elevated above normal range; details: about 24 hours post dose
Method: Compounds of Formula (Ia) were assessed for acute tolerability in a rodent model at dose levels ranging from 100 - 200 mg/kg based upon the minimum efficacious dose of each compound. Female Sprague Dawley rats were administered up to a 10 mL/kg dose volume of each compound in 0.9% saline at appropriate concentrations as an intravenous bolus via the lateral tail vein. The animals were observed immediately post dose and for up to twenty four hours post dose and clinical observations were recorded. Additionally, approximately twenty four hours post dose animals were euthanized and blood taken for serum chemistry analysis with a focus on liver function tests (LFTs). The maximum tolerated single dose and LFT results are summarized in Table 3, where (↔) indicates blood levels of markers for potential liver damage within normal range and (↑) indicates blood levels of markers for potential liver damage elevated above normal range. Referring to the data in Table 3, LFT blood levels of markers for potential liver damage remained within normal range for the compounds of Formula (Ia), while LFTs were elevated for Comparator Compounds including 5-10 fold elevation above normal for ALT and AST blood levels observed upon administration of Comparative Compound 1. […]

[3] = test system: rats; test: Rodent formalin pain model (Example 3); format: in vivo; details: rat; for Minimal Efficacious Dose of Compound in Formalin Model: IV, statistically significant difference vs vehicle at 0 - 2 min (p≤0.05); for Duration of Pain Behavior: first two minutes after formalin, vehicle 88.6
Method: Compounds of Formula (Ia) are active in rodent models of pain induced by direct activation of the TRPA1 channel with intraplantar injection of the TRPA1 agonist formalin. Compounds of Formula (Ia) were tested in the formalin-induced pain test reported by Abbott et. al. Pain. 1995 Jan;60(1):91-102. Dubuisson et al. describe a method for assessing pain and analgesia in rats. Briefly, dilute formalin (50 µL of 3 % formalin) is injected into the plantar surface of the hind paw. […] The individual responsible for counting the pain behaviors in a particular study is blinded to the treatment groups.
Table 2 is a data table showing the results from testing compounds of Formula (Ia) in the rodent formalin-induced pain model described in […]. Rats were treated with the compounds of Formula (Ia) at various doses (0.1, 0.3, 1, 1.2, 3, 4, 10, or 30 mg/Kg IV) or with a control composition containing the vehicle (i.e., without a compound of Formula (Ia)). Pain behaviors (flinch, lift, lick, bite) were monitored following intraplantar formalin injection. Referring to Table 2, the minimum effective dose was derived from dose resulting in statistically significant difference in behavior at 0 - 2 min time period as compared with vehicle (p≤0.05).

[4] = Aqueous solubility in buffered solutions, HPLC (Example 2); format: physicochemical; details: kinetic from dmso stock, ambient temperature
[5] = test system: sheep; test: Sheep model of experimental allergic asthma, Ascaris suum antigen challenge (Example 6); format: in vivo; details: for inhibition of the AHR / inhibition of the EAR / inhibition of the LAR: sheep; for Average Early Airway Response (EAR) / Average Late Airway Response (LAR) / Airway Hyperresponsiveness (AHR): 4 days; for Average Early Airway Response (EAR): average increase in RL 0-4h after challenge; for Average Late Airway Response (LAR): average increase in RL 5-8h after challenge; for Airway Hyperresponsiveness (AHR): ratio of post challenge PC400 to pre challenge PC400
Method: Compounds were tested in the sheep model of experimental asthma reported in Abraham WM, Asthma & Rhinitis, 2000: 1205-1227. All animals were tested for both early and late stage airway responses to inhalation challenge with Ascaris suum antigen.
The unsedated sheep were restrained in a cart in the prone position with their heads immobilized. After topical anesthesia of the nasal passages with 2% lidocaine solution, a balloon catheter was advanced through one nostril into the lower esophagus. The animals were intubated with a cuffed endotracheal tube through the other nostril. Pleural pressure was estimated with the esophageal balloon catheter. Lateral pressure in the trachea was measured with a sidehole catheter advanced through and positioned distal to the tip of the endotracheal tube. Transpulmonary pressure, the difference between tracheal and pleural pressure, was measured with a differential pressure transducer catheter system. For the measurement of pulmonary resistance (RL), the proximal end of the endotracheal tube was connected to a pneumotachograph. The signals of flow and transpulmonary pressure were recorded on an oscilloscope recorder, which was linked to a computer for on-line calculation of RL from transpulmonary pressure, respiratory volume (obtained by digital integration) and flow. Analysis of 5-10 breaths were used for the determination of RL in cm H2O / L x sec^-1.
Aerosols of Ascaris suum extract (diluted 20:1 with phosphate buffered saline; 82,000 PNU/ml) were generated using a disposable medical nebulizer (Raindrop^R, Puritan Bennett). The output from the nebulizer was directed into a plastic t-piece, one end of which was connected to the inspiratory port of a Harvard respirator. To better control aerosol delivery, a dosimeter consisting of a solenoid valve and a source of compressed air (20 psi) was activated at the beginning of the inspiratory cycle of the Harvard respirator system for 1 s. The aerosol was delivered at a tidal volume of 500 ml and a rate of 20 breaths per minute. Each sheep was challenged with an equivalent dose of antigen in the control and drug trials. Carbachol aerosols were also generated with this same nebulizer system.
For the carbachol concentration response curves, measurements of RL were repeated immediately after inhalation of buffer and after each administration of 10 breaths of increasing concentrations of carbachol solution (0.25%, 0.5%, 1.0%, 2.0% and 4.0% w/v). To assess airway responsiveness, the cumulative carbachol dose in breath units (BU) that increased RL 400% over the post-buffer value (i.e. PC 400) was calculated from the dose response curve. One breath unit was defined as one breath of a 1% w/v carbachol solution.
Compound 5-T was given at doses of 1, 3 and 10 mg/kg given orally once a day for 3 days and on day 4, 2 hours before antigen challenge. A group of sheep also received a vehicle control.
A pre-challenge (baseline) PC 400 was obtained 1-3 days before the start of dosing. Then on the day of antigen challenge, the sheep received the last dose of Compound 5-T 2h before antigen challenge. Values of lung resistance (RL) were measured at baseline, 1.5 h after drug treatment and, then, serially for 8h after challenge with Ascaris suum antigen. Measurements of RL were obtained 24 h after challenge followed by the 24 h post challenge determination of PC 400. Responses to antigen challenge with drug and/or vehicle treatment were compared to each animal's historical control.
Two groups of animals (n=3) were used for these studies. Group 1 received the vehicle control and the 1 mg/kg dose. Group 2 received the 3 mg/kg dose and the 10 mg/kg dose. A Repeated Measures Analysis of Variance was used to compare the responses within each group to their historical control. If a significant difference was found, then Tukey's post hoc test was used to determine pair wise differences. […]

[6] = sodium bicarbonate buffer in water for injection/5% dextrose, pH 9.0, 50 mM sodium bicarbonate, read-out: pH 9.0 aqueous solubility
[7] = sodium phosphate buffer in water for injection/5% dextrose, pH 7.4, 75 mM sodium phosphate, read-out: pH 7.4 aqueous solubility

human TRPA1, sequence (O75762 whole entry): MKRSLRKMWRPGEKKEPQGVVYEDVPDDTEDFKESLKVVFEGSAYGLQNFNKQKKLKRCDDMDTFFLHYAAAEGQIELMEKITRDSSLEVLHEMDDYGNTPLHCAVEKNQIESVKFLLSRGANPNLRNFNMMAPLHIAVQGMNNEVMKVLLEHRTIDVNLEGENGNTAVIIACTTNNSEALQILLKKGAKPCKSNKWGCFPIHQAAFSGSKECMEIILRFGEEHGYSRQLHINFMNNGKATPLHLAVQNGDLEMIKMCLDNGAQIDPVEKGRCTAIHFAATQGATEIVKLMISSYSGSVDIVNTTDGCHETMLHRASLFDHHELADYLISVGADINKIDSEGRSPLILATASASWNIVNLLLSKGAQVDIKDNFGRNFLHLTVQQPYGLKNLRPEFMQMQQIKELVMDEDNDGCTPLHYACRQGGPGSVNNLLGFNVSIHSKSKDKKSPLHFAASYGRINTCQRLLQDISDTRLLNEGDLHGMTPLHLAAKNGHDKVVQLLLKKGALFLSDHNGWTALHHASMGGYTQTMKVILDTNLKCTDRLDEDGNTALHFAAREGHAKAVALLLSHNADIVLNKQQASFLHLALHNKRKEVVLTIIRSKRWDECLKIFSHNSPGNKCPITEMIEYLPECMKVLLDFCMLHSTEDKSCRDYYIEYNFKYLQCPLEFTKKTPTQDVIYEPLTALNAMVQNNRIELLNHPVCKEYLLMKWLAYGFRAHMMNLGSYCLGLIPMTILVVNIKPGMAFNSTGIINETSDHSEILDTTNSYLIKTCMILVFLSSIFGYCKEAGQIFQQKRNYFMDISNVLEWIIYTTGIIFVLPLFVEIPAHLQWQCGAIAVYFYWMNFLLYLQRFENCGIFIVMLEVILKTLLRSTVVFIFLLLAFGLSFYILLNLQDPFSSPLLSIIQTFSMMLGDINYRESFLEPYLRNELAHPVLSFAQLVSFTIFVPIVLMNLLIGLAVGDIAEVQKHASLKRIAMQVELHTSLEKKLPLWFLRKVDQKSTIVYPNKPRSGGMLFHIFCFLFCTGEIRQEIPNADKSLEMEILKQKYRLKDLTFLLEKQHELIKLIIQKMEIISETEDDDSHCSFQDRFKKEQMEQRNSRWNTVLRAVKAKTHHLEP

For C[C@@H](C(=O)N(COP(=O)(O)O)c1cncc(-c2cnc(N3CCCC3(C)C)nc2)n1)n1cnc2c1c(=O)n(C)c(=O)n2C [Compound 2-E, (S)-(2-(1,3-dimethyl-2,6-dioxo-1,2,3,6-tetrahydro-7H-purin-7-yl)-N-(6-(2-(2,2-dimethylpyrrolidin-1-yl)pyrimidin-5-yl)pyrazin-2-yl)propanamido)methyl dihydrogen phosphate], the IC50 [1] was > 100 nM, the “Alterations in LFT” value ([2]; single IV bolus dose 100 mg/kg) was “↔” and the “LFT: % upper normal range ALT serum levels” value ([2]; single IV bolus dose 100 mg/kg) was <100%/<100%. For the same compound, the “LFT: % upper normal range AST serum levels” value ([2]; single IV bolus dose 100 mg/kg) was <100%/<100%, the “Minimal Efficacious Dose of Compound in Formalin Model” value [3] was 3 mg/kg and the “Duration of Pain Behavior” value ([3]; dose 0.3 mg/kg IV) was 80.4 s. The “Duration of Pain Behavior” value ([3]; dose 1 mg/kg IV) was 77 s, the “Duration of Pain Behavior” value ([3]; dose 3 mg/kg IV) was 15.1 s and the solubility kinetic at 24 h [4, 6] was > 1000 µg/mL. For the same compound, the solubility kinetic at 24 h [4, 7] was > 1000 µg/mL.
With C[C@H]1CCCN1c1ncc(-c2cncc(N(COP(=O)(O)O)C(=O)[C@H](C)n3cnc4c3c(=O)n(C)c(=O)n4C)n2)cn1 [Compound 3-J, ((S)-2-(1,3-dimethyl-2,6-dioxo-1,2,3,6-tetrahydro-7H-purin-7-yl)-N-(6-(2-((S)-2-methylpyrrolidin-1-yl)pyrimidin-5-yl)pyrazin-2-yl)propanamido)methyl dihydrogen phosphate] the IC50 [1] was > 100 nM, the “Alterations in LFT” value ([2]; single IV bolus dose 130 mg/kg) was “↔” and the “LFT: % upper normal range ALT serum levels” value ([2]; single IV bolus dose 130 mg/kg) was <100%/<100%. The “LFT: % upper normal range AST serum levels” value ([2]; single IV bolus dose 130 mg/kg) was <100%/<100%, the “Minimal Efficacious Dose of Compound in Formalin Model” value [3] was 3 mg/kg and the “Duration of Pain Behavior” value ([3]; dose 3 mg/kg IV) was 39.7 s. For the same compound, the “Duration of Pain Behavior” value ([3]; dose 10 mg/kg IV) was 1.6 s, the solubility kinetic at 24 h [4, 6] was > 1000 µg/mL and the solubility kinetic at 24 h [4, 7] was > 1000 µg/mL.
With C[C@@H](C(=O)Nc1cncc(-c2cnc(N3CCC[C@H]3C(F)(F)F)nc2)n1)n1cnc2c1c(=O)n(C)c(=O)n2C [Compound 5-T, (S)-2-(1,3-dimethyl-2,6-dioxo-1,2,3,6-tetrahydro-7H-purin-7-yl)-N-(6-(2-((S)-2-(trifluoromethyl)pyrrolidin-1-yl)pyrimidin-5-yl)pyrazin-2-yl)propanamide] the IC50 [1] was < 25 nM, the “inhibition of the AHR” value ([5]; 1 mg/Kg dose) was 45% and the “inhibition of the EAR” value ([5]; 1 mg/Kg dose) was “no effect on EAR”. The “inhibition of the LAR” value ([5]; 1 mg/Kg dose) was 48%, the “Average Early Airway Response (EAR)” value ([5]; 1 mg/Kg orally once a day, Control 1 175 ± 25) was 171 ± 17 and the “Average Late Airway Response (LAR)” value ([5]; 1 mg/Kg orally once a day, Control 1 113 ± 4) was 59 ± 1*^+. The “Airway Hyperresponsiveness (AHR)” value ([5]; 1 mg/Kg orally once a day, Control 1 0.49 ± 0.04) was 0.71 ± 0.01*^+, the “inhibition of the AHR” value ([5]; 3 mg/Kg dose) was 100% and the “inhibition of the EAR” value ([5]; 3 mg/Kg dose) was 51%. The “inhibition of the LAR” value ([5]; 3 mg/Kg dose) was 78%, the “Average Early Airway Response (EAR)” value ([5]; 3 mg/Kg orally once a day, Control 2 195 ± 15) was 95 ± 6 and the “Average Late Airway Response (LAR)” value ([5]; 3 mg/Kg orally once a day, Control 2 107 ± 5) was 24 ± 1. The “Airway Hyperresponsiveness (AHR)” value ([5]; 3 mg/Kg orally once a day, Control 2 0.41 ± 0.01) was 0.92 ± 0.08, the “inhibition of the AHR” value ([5]; 10 mg/Kg dose) was 100% and the “inhibition of the EAR” value ([5]; 10 mg/Kg dose) was 72%. The “inhibition of the LAR” value ([5]; 10 mg/Kg dose) was 79%, the “Average Early Airway Response (EAR)” value ([5]; 10 mg/Kg orally once a day, Control 2 195 ± 15) was 55 ± 2*^ and the “Average Late Airway Response (LAR)” value ([5]; 10 mg/Kg orally once a day, Control 2 107 ± 5) was 22 ± 3. The “Airway Hyperresponsiveness (AHR)” value ([5]; 10 mg/Kg orally once a day, Control 2 0.41 ± 0.01) was 1.00 ± 0.14, the “inhibition of the average early airway response (EAR), compared to Comparative Compound 2” value ([5]; at the doses tested) was “improved inhibition” and the “inhibition of the average late airway response (LAR) and the airway hyperresponsiveness (AHR)” value ([5]; doses 1, 3 and 10 mg/kg orally) was “dose dependent inhibition”. The solubility kinetic at 24 h [4, 6] was 7 µg/mL (≈ 12.9 µM) and the solubility kinetic at 24 h [4, 7] was 5 µg/mL (≈ 9.18 µM).
